Activity calls are given as the source filed them.
Assays:
[1] = biological target: Melanin-concentrating hormone receptor 1 (Homo sapiens, UniProt Q99705); assay: Late-stage fluorescence-based counterscreen for antagonists of the G-protein coupled receptor 7 (GPR7): cell-based dose response assay to identify antagonists of the melanin-concentrating hormone receptor 1 (MCHR1). [Related pubchem assays (depositor defined):AID1861, AID1880, AID1952, AID2148, AID2251, AID2257, AID485339]; format: functional;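 also: stimulated with 30 nM MCH peptide agonist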
Tumor necrosis factor = Tumor necrosis factor (Homo sapiens, UniProt P01375); assay: analog potency on TNFa NF-kB signaling – cell-based, revised, SAR follow-up (AID 2337); format: functional
[2] = biological target: T1, Nucleotide-binding oligomerization domain-containing protein 1 (Homo sapiens, UniProt Q9Y239); assay: blockers of NOD1 pathway activity – revised, SAR follow-up (AID 2333); format: functional
T1 sequence (Q9Y239 whole entry): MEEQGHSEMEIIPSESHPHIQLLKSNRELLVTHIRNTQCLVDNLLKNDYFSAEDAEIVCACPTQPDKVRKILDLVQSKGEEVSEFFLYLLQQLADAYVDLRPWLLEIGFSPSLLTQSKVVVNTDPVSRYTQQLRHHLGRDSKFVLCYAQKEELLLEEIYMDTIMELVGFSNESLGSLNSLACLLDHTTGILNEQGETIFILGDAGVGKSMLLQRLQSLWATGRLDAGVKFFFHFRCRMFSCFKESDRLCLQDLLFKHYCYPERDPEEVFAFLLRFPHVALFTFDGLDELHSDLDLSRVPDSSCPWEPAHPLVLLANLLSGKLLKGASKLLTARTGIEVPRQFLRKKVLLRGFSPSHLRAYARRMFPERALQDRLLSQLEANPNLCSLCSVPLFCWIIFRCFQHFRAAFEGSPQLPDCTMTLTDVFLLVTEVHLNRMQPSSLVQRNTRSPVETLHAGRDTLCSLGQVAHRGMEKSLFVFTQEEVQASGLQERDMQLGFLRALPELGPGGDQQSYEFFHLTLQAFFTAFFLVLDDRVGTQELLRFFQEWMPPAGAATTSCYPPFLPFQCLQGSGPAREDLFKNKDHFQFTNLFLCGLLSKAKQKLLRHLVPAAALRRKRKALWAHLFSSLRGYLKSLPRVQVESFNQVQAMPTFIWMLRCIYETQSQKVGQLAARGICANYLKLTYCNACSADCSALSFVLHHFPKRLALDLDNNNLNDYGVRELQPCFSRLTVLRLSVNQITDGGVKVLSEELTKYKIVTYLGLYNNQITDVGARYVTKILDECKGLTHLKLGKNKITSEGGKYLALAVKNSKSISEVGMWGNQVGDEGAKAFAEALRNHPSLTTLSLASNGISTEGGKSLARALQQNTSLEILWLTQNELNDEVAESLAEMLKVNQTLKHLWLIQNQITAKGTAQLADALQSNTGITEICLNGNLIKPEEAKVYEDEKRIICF

[3] = biological target: Nucleotide-binding oligomerization domain-containing protein 2 (Homo sapiens, UniProt Q9HC29); assay: PubChem AID 2334; format: functional
HEK293 = assay: cells; conditions: Homo sapiens;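 also: cells exposed to compound for 14 hours overnight before viability readout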
[4] = biological target: Luciferin 4-monooxygenase (Photinus pyralis, UniProt P08659); assay: inhibition of purified Photinus pyralis luciferase – biochemical, luminescence, dose response (AID 1891)
[5] = Luminescence Cell-Based Dose Confirmation HTS to Identify Inhibitors of Platelet Dense Granule Release. [Related pubchem assays: 1663 (Primary HTS), 1678 (Summary of Project)]; format: functional
[6] = biological target: Eukaryotic translation initiation factor 4E (Mus musculus, UniProt P63073); assay: blockers of eIF4G binding by eIF4E – biochemical, TR-FRET, dose response (AID 855); format: functional;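 also: potency for disrupting eIF4E binding to eIF4GI seen as loss of FRET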
[7] = A cytotoxicity screen of small molecule inhibitors of the PhoP region in Salmonella typhi identified in the primary screen. [Related pubchem assays: 1850, 1864, 1985 ]; format: functional
HeLa = assay: viability loss in HeLa cells – cell-based, 24 h, cherry-picked samples, cytotoxicity control, dose response (AID 504726); format: functional; conditions: Homo sapiens;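 also: potency for cytotoxicity as loss of luminescence signal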
[8] = biological target: Acyl-homoserine lactone acylase PvdQ (Pseudomonas aeruginosa (strain LESB58), UniProt Q9I194); assay: PvdQ acylase enzyme activity blockers – biochemical, fluorescence, plate reader and imaging, cherry-picks, dose response (AID 493231)
[9] = biological target: T2, Short transient receptor potential channel 4 (Mus musculus, UniProt Q9QUQ5); assay: block of DAMGO-driven TRPC4 calcium entry – cell-based, HEK293 TRPC4/mu-opioid, Fluo-4 calcium, dose response (AID 434942); format: functional;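 also: potency of inhibitors blocking the TRPC4 calcium response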
T2 sequence (Q9QUQ5 whole entry): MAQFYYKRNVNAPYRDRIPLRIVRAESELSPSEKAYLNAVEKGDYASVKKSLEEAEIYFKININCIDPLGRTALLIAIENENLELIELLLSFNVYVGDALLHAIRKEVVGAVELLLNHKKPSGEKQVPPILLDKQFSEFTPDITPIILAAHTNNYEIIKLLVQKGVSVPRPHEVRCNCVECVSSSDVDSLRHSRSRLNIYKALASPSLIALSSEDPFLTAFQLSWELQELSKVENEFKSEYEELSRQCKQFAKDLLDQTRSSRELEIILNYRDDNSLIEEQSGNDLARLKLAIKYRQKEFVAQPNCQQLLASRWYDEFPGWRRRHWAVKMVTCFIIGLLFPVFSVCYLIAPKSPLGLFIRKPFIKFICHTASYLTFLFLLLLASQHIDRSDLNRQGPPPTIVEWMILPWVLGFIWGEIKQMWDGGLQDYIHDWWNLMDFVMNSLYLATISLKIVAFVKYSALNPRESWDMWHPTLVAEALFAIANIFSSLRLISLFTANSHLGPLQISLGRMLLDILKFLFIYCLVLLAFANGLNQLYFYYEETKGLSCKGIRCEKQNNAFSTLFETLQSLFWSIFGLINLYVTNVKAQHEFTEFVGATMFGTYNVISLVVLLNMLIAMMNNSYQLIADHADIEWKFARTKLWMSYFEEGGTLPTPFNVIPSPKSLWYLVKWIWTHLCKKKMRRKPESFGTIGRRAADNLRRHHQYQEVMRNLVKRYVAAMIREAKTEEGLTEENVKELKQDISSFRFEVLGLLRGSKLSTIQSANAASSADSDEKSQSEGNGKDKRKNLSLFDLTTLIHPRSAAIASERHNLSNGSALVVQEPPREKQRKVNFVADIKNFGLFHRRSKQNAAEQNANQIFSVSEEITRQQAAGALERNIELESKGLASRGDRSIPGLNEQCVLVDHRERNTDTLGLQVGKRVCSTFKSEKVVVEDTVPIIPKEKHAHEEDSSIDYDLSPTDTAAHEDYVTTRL

Bcl-2-like protein 10 = biological target: T3, Bcl-2-like protein 10 (Homo sapiens, UniProt Q9HD36); assay: Bcl-B/TR3 peptide binding disruption – biochemical, fluorescence polarization, FITC-TR3 peptide, selectivity assay for Bfl-1 inhibitor project, primary screen (AID 748);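 also: fluorescence polarization from a fluorescein-labelled TR3 peptide binding purified Bcl-B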
T3 sequence (Q9HD36 whole entry): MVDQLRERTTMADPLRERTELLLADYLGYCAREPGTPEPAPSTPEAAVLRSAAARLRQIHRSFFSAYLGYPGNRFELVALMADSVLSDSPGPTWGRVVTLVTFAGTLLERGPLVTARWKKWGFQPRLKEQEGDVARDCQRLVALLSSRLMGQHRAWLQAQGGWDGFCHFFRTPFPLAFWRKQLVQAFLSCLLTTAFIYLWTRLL

[10] = biological target: DNA (cytosine-5)-methyltransferase 1 (Homo sapiens, UniProt P26358); assay: inhibition of DNA methylation by DNMT1 – biochemical, fluorescent molecular beacon, confirmation (AID 602386); format: functional
Cytochrome P450 3A4 = Cytochrome P450 3A4 (Homo sapiens, UniProt P08684); conditions: Potency;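 also: confirmatory qHTS run detecting inhibitors and substrates of CYP3A4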
Cytochrome P450 2C9 = Cytochrome P450 2C9 (Homo sapiens, UniProt P11712); conditions: Potency
Cytochrome P450 1A2 = biological target: T4, Cytochrome P450 1A2 (Homo sapiens, UniProt P05177);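 also: PubChem cytochrome P450 panel assay, CYP1A2 panel member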
T4 sequence (P05177 whole entry): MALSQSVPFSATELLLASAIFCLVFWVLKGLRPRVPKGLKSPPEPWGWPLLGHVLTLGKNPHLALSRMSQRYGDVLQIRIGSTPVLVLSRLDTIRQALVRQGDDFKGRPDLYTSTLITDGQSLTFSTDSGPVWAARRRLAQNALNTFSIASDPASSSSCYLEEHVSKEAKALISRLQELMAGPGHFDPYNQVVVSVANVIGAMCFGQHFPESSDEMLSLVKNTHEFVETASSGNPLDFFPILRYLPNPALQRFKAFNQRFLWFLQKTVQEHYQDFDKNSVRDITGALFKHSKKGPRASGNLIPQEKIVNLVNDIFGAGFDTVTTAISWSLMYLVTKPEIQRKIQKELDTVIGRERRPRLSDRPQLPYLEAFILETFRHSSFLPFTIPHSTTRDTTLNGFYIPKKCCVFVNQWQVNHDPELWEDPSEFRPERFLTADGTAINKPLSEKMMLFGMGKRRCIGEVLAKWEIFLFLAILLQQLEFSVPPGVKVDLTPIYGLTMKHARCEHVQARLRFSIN

[11] = biological target: Peroxisome proliferator-activated receptor gamma/Nuclear receptor coactivator 2 (Homo sapiens, UniProt P37231); format: functional;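 also: agonist potency for raising coactivator recruitment to the receptor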
[12] = biological target: Peroxisome proliferator-activated receptor gamma/Nuclear receptor coactivator 1 (Homo sapiens, UniProt P37231); format: functional;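 also: agonist potency as compounds enhance coactivator SRC-1 recruitment to PPARgamma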
[13] = biological target: Peroxisome proliferator-activated receptor gamma/Nuclear receptor coactivator 3 (Homo sapiens, UniProt P37231); format: functional;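 also: agonist potency for raising coactivator recruitment to the receptor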
Trypsin = Trypsin (Sus scrofa, UniProt P00761); assay: trypsin protease activity blockade – biochemical, quenched peptide fluorescence, cherry-pick, selectivity assay for Rce1 protease inhibitor project, dose response (AID 488789)
Trypsin, sequence (P00761 whole entry): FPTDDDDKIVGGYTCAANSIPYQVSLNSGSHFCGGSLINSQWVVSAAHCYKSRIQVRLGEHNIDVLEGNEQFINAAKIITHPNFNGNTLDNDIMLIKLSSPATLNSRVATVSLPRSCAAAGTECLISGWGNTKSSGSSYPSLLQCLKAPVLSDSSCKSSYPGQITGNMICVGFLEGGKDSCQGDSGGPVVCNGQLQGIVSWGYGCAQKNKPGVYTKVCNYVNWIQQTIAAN

Eukaryotic translation initiation factor 4E, sequence (P63073 whole entry): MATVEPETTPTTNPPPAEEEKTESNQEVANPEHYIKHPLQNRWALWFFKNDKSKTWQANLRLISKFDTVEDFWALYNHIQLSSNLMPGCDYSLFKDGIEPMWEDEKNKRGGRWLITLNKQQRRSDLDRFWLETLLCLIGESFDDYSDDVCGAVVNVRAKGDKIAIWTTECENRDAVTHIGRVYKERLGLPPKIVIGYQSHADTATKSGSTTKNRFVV
Acyl-homoserine lactone acylase PvdQ, sequence (Q9I194 24-193 limits assumed): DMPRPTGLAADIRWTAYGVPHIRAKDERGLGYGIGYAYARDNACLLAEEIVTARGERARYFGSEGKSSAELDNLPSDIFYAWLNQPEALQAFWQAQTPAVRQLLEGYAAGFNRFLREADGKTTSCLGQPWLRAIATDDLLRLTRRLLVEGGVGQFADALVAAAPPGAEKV
Acyl-homoserine lactone acylase PvdQ, sequence (Q9I194 217-762 limits assumed): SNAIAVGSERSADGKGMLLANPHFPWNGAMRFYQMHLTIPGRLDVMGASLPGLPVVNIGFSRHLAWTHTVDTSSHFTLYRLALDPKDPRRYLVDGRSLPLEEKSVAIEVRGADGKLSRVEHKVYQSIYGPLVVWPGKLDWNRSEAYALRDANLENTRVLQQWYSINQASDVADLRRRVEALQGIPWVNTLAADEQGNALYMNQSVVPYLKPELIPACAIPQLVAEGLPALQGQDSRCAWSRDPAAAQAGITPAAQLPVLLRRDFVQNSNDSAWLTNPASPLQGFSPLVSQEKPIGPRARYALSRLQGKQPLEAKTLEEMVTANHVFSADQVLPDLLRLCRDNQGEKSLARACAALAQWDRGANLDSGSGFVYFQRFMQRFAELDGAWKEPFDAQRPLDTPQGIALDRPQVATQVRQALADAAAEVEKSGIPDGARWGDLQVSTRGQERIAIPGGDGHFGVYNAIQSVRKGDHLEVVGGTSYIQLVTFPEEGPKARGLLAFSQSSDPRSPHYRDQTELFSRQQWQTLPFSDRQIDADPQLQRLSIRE
Melanin-concentrating hormone receptor 1, sequence (Q99705 whole entry): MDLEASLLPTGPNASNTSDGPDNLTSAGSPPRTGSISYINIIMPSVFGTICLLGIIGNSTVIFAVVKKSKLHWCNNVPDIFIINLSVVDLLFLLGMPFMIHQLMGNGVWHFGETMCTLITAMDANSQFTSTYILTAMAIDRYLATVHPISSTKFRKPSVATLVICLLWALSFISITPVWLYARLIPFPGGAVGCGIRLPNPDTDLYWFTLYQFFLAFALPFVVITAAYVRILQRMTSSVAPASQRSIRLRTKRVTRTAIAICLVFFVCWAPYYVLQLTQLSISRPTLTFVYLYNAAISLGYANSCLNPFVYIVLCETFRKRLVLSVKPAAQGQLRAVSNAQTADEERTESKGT
DNA (cytosine-5)-methyltransferase 1, sequence (P26358 whole entry): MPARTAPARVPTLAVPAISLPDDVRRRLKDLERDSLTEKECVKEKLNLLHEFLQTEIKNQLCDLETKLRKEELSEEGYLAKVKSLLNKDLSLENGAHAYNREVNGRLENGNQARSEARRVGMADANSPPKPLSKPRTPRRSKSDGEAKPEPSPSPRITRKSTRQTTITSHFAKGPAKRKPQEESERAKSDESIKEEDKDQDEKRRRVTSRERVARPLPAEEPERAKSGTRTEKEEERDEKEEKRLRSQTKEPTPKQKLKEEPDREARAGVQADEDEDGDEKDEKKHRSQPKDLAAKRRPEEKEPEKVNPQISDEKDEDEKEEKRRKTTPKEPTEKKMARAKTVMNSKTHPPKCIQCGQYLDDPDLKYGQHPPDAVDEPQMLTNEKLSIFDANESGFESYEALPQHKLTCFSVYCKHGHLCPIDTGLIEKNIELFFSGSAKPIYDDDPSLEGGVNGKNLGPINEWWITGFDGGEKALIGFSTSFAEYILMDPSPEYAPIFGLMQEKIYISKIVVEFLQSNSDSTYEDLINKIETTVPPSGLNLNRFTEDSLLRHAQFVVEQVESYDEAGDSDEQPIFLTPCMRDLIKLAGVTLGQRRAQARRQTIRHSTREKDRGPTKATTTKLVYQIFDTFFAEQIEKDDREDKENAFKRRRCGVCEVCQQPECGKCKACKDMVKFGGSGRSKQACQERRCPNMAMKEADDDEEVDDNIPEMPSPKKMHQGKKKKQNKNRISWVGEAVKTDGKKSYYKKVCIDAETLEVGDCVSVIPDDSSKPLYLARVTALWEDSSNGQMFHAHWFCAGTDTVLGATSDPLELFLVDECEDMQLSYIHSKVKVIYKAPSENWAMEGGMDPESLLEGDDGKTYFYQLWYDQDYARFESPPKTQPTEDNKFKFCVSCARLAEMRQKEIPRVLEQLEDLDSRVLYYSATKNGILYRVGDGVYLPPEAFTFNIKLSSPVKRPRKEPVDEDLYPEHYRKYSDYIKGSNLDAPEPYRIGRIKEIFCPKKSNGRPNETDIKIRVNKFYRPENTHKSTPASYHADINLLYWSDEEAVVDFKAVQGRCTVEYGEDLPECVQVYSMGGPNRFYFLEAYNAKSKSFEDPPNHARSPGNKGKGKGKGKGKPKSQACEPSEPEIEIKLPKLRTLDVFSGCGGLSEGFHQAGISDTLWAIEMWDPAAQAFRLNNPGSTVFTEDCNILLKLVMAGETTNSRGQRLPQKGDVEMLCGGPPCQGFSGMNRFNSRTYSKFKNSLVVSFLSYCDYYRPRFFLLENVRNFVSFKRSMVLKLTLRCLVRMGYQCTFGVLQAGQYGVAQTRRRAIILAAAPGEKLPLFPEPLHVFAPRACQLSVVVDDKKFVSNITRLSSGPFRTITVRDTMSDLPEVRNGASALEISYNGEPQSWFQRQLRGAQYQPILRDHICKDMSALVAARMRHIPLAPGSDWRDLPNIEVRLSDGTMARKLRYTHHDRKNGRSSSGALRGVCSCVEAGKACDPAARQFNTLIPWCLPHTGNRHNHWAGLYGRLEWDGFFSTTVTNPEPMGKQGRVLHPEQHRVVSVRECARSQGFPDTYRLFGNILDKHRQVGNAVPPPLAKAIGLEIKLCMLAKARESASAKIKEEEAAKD
Cytochrome P450 3A4, sequence (P08684 whole entry): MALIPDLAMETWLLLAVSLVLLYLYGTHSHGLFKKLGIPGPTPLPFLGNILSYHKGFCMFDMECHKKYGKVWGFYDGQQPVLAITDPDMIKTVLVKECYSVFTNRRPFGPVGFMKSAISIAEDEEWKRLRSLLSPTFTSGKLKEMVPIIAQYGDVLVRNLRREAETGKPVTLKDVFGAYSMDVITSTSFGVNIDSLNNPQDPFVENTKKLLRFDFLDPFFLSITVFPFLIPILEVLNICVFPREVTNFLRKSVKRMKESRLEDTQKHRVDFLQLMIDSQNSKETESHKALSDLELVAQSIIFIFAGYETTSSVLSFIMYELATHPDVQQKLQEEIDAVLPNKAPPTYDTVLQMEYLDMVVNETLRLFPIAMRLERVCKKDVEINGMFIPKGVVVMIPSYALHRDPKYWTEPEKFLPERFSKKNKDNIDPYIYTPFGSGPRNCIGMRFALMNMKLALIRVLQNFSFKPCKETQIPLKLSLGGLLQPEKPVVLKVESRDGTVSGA
Tumor necrosis factor, sequence (P01375 whole entry, the tested form may be a part): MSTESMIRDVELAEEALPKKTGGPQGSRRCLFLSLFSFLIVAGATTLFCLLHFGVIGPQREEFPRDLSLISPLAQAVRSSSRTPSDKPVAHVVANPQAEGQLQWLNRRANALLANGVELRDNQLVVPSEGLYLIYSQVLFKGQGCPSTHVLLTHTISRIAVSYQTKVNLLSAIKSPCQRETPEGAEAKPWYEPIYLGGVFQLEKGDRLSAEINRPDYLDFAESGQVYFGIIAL
Cytochrome P450 2C9, sequence (P11712 whole entry): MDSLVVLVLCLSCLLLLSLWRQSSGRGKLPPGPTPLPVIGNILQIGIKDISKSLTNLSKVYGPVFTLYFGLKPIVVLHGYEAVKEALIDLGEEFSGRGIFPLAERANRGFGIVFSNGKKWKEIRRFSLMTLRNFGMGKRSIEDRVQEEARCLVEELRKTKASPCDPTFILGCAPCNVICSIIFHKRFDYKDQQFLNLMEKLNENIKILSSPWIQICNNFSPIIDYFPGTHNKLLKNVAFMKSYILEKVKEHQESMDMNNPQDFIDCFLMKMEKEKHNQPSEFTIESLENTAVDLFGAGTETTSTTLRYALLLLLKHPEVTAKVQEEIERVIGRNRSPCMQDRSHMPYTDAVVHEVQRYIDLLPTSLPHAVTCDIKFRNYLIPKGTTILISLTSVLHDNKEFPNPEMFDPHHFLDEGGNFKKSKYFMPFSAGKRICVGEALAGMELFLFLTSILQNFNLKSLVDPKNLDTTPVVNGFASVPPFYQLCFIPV
Luciferin 4-monooxygenase, sequence (P08659 whole entry): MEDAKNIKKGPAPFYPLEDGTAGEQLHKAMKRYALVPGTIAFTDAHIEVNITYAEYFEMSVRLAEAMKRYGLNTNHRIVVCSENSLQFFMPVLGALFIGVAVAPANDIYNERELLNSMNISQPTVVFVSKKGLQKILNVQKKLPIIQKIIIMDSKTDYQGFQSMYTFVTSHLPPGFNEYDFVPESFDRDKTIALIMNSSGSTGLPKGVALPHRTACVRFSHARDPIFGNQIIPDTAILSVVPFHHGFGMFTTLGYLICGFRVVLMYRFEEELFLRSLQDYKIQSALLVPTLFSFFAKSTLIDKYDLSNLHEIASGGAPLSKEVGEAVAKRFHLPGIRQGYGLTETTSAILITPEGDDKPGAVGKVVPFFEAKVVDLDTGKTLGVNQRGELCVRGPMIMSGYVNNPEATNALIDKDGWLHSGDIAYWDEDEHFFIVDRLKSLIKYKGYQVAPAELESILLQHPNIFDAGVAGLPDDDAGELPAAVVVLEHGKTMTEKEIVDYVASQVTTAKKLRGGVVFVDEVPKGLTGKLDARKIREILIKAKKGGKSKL

In the case of `COc1ccc(Oc2c(Cl)cnn(-c3ccc4c(c3)CCCC4)c2=O)cc1`, the IC50 [1] is reported as 2.1 µM (active).

For `CCOC(=O)c1c(NC(=O)c2cccs2)sc2c1CC(C)(C)OC2`, the IC50 (Tumor necrosis factor) was > 20 µM (inactive), the IC50 [2] was > 20 µM (inactive) and the IC50 [3] was > 20 µM (inactive). The IC50 (HEK293) was > 20 µM (inactive).

With `COc1ccc(-c2nc(-c3ccc(Br)cc3)no2)c(OC)c1` the EC50 [4] was > 112 µM (not active), the EC50 [5] was > 112 µM (not active) and the IC50 [6] was > 64 µM (inactive).

In the case of `COc1ccccc1Nc1cc(C(=O)NCc2cccnc2)c2ccccc2n1`, the EC50 [7] is reported as > 50 µM (active).

With `NC(=S)N/N=C/c1ccc(-c2ccc([N+](=O)[O-])cc2)o1` the AC50 (HeLa) was 84.6 µM (active).

For `CC(C)c1ccc(-n2ncc(Cl)c(NCc3ccccc3)c2=O)cc1`, the IC50 [1] was 6.9 µM (active).

For `N#Cc1cn(Cc2ccccc2)c2ccccc12`, the AC50 [8] was 45 µM (active).

For `Clc1ccc(CN2C3=NCCN3c3ccccc32)cc1`, the EC50 [7] was > 50 µM (active) and the EC50 [9] was 1.5 µM (active).

For `Cc1cccc(OCC(=O)Nc2ccc(N3CCCC3)cc2)c1C`, the IC50 (Bcl-2-like protein 10) was 96.2 µM (inactive) and the IC50 [10] was > 99 µM (inactive).

For `CCCCCC(=O)c1cc(CC(C(=O)OC)C(=O)OC)cc2cc(OC)c(OC)cc12`, the AC50 (Cytochrome P450 3A4) was 3.98 µM (inconclusive) and the AC50 (Cytochrome P450 2C9) was 3.16 µM (inconclusive).

For `Cc1cccc(N(Cc2ccccc2)C(=O)C2CCN(C(=O)c3ccccc3C)CC2)c1`, the AC50 (HeLa) was 135 µM (active).

In the case of `O=C(Oc1c(Br)cc(C(=S)N2CCOCC2)cc1Br)c1ccc(Cl)cc1`, the IC50 [6] is reported as > 64 µM (inactive) and the AC50 (Cytochrome P450 1A2) is reported as 17.8 µM (inconclusive).

In the case of `COCCn1c(SCC(=O)Nc2ncc(Cl)c(C)c2Cl)nc2ccccc21`, the IC50 (Bcl-2-like protein 10) is reported as 90.6 µM (inactive).

With `Cc1ccc(-c2cc(-c3ccccc3)c(C#N)c(Br)n2)cc1` the EC50 [11] was 34.1 µM (not active), the EC50 [12] was 58.7 µM (not active) and the EC50 [13] was 58.2 µM (not active). For the same compound, the AC50 (Trypsin) was 11.9 µM (active).

With `CCC(C)(C)NC(=O)c1cc([N+](=O)[O-])ccc1N1CCCCC1` the AC50 [8] was 13.7 µM (active).
